Laboratory results published in patent US10278941B2, “Use of 2,5-dihydroxybenzene compounds and derivatives for the treatment of glioma” (AmDerma Pharmaceuticals, LLC, priority 2006, dated 2019).

Experiments:
[1] = tested on: rat glioma C6 cells; assay: Rat glioma C6 cell proliferation, crystal violet staining; assay type: cell-based; details: 48 h
Procedure: The cell line used was rat glioma C6 cells. The cells were cultured as previously described (Cuevas P et al. Neurol Res, 2005). The cells were cultured as adherent cells in Dulbecco's modified Eagle's medium, supplemented with 7.5% (v/v) of fetal bovine serum, 10 μg/ml of streptomycin and 10 units/ml of penicillin. The tumor cells were seeded in 24-well plates at a density of 10,000 cells/well, and were incubated at 37° C. in a humidified chamber with 5% CO2. Once adhered, the cells were treated or not (controls) with 2,5-dihydroxybenzoate at 100, 200, 500 or 1000 μM and they were allowed to proliferate for 48 h. After this time the glioma cell proliferation was evaluated by means of staining the fixed cells with crystal violet. The number of cells is proportional to the amount of retained dye, which was spectrophotometrically determined by measuring the absorbance at 595 nm once the dye was extracted from the cells.
(§1) The cell line used was the C6 cell line and the experiment was carried out as described in Example 2. Once adhered, the cells were treated or not (controls) with increasing concentrations of 2,5-DHC (10, 25, 50 and 100 μM) and they were allowed to proliferate for 48 h. After this time the glioma cell proliferation was evaluated by means of staining the fixed cells with crystal violet. The number of cells is proportional to the amount of retained dye, which was determined spectrophotometrically by measuring absorbance at 595 nm once the dye was extracted from the cells.
as §1, with “examples 2 and 3.” for “Example 2.”, “(5A-2HBS) (500 μM) or (2A-5HBS) (500” for “increasing concentrations of 2,5-DHC (10, 25, 50 and 100”, “measuring the” for “measuring”

[2] = tested on: bFGF-induced fibrosis; assay: bFGF-induced fibrosis, subcutaneous gelatin sponge implant; assay type: in vivo, Sprague-Dawley rats; details: sponge with bFGF plus compound 100 μM, 7 days
Procedure: Sterile gelatin sponges (1 mm^3; Curaspon Dental, Clinimed Holding, Zwanenburg, The Netherlands) were subcutaneously implanted in the dorsal region of the neck in Sprague-Dawley rats after the induction of intraperitoneal anesthesia. The animals were split into two groups: group A, the sponges were moistened with 200 μl of saline solution which contained 25 μg/ml of heparin and 10 μg/ml of basic FGF (bFGF); group B, the sponges were moistened in the same solution as in group A, but which solution further contained 2,5-dihydroxybenzoate (100 μM). After 7 days, the sponges and the surrounding subcutaneous fat were removed and histologically analyzed.

[3] = biological target: T1, Fibroblast Growth Factor-1 (FGF-1) (Homo sapiens, UniProt P05230); assay: Crystal diffraction of FGF-1:compound complexes; assay type: binding; details: acetoxyl groups conserved when bound
Procedure: Based on the crystal diffraction of the FGF-1:2-acetoxy-5-hydroxybenzene sulfonic acid, FGF-1:5-acetoxy-2-hydroxybenzene sulfonic acid and FGF-1:2,5-diacetoxybenzene sulfonic acid complexes, the structures of the complexes were calculated and represented. FIGS. 13, 14 and 15, which show the surface of the dyed protein according to its electrostatic potential (light grey, negative charge; dark grey, positive charge; white, regions with no charge), show the manner in which 2-acetoxy-5-hydroxybenzene sulfonic acid, 5-acetoxy-2-hydroxybenzene sulfonic acid and 2,5-diacetoxybenzene sulfonic acid interact, respectively, with FGF-1.

[4] = tested on: subcutaneous gliomas (rat glioma C6 cells); assay: Progression of established subcutaneous C6 gliomas in rats; assay type: in vivo; details: for average size (volume) of the subcutaneous gliomas: vs carrier
Procedure: Rat C6 glioma cells were cultured as previously described (Cuevas P et al. Neurol Res, 2005). The C6 cells cultured to confluence in 75 cm^2 flasks were removed and implanted under the abdominal skin in anesthetized rats. The existence of a tumor in the implantation area was observed five days after the implantation of the tumor cells. Only the rats in which the existence of a tumor was observed were randomly assigned to be treated with daily intraperitoneal injections of 2,5-dihydroxybenzene sulfonate (DHBS; 100 mg/kg/day), 2,5-diacetoxybenzene sulfonate (DABS; 100 mg/kg/day) or the carrier (0.9% NaCl). After 10 days of treatment, the subcutaneous gliomas were removed and their volume was calculated according to the formula V=4/3π·(L/2)·(A/2)^2 (in mm^3) where L is the larger diameter and A is the smaller diameter, both expressed in mm.
Tumor cells elude the programmed cell death process or apoptosis that normal cells experience. Apoptosis induction in tumor cells is one way to confront the development of a tumor. To evaluate the effect of potassium 2,5-dihydroxybenzene sulfonate […] on tumor cell apoptosis, 6 μm thick sections of the subcutaneous gliomas described in example 4 were made. The sections were stained with hematoxylin and eosin and observed at a magnification of 313 times using immersion oil. In these conditions, cell apoptosis is shown by the existence of apoptotic bodies appearing as strongly chromogenic granules in the cell nucleus which is frequently fragmented.

[5] = tested on: human prostate cancer PC-3 cells; assay: Subcutaneous PC-3 tumor progression in athymic mice; assay type: in vivo, athymic mice (Nu/Nu); details: 100 mg/kg daily i.p., 15 days
Procedure: 5×10^6 human prostate cancer PC-3 cells were subcutaneously injected in male athymic mice (Nu/Nu) of 6-8 weeks of age and weighing 20-26 g. Ten days after the implantation of the tumor cells, the mice were randomly split into two groups: one of them received a daily injection of potassium 2,5-diacetoxybenzene sulfonate (DABS) by intraperitoneal route at a dose of 100 mg/kg dissolved in saline (0.9% NaCl) whereas the other group received a daily injection of carrier (saline). The treatments were administered for 15 days. The volumes of the tumors induced by the implantation of PC-3 cells were measured through the skin on alternating days using a Vernier caliper. The volume was calculated using the formula V=(D×2d)/2, where D is the larger diameter in mm, d is the smaller diameter in mm and V is the volume in mm3. At the end of treatment, the mice were sacrificed and the tumors were weighed.

[6] = tested on: human prostate cancer PC-3 cells; assay: Human tumor cell proliferation, XTT viability method, PC-3; assay type: cell-based; details: 1-200 μM, 96 h
Procedure: (§2) The cell lines used were the human prostate cancer PC-3 cells and human lung cancer A549 cells. 2000 cells were seeded per well in 96-well plates and they were allowed to adhere overnight. Then the cells were treated or not (controls) with potassium 2,5-diacetoxybenzene sulfonate (DABS) (1-200 μM) and they were allowed to proliferate for 96 h. After this time, the PC-3 and A549 cell proliferation was evaluated by determining the final number of cells by means of the viability method of yellow tetrazolium salt (XTT). The data were expressed as a percentage of the control (without treatment).

[7] = tested on: human lung cancer A549 cells; assay: Human tumor cell proliferation, XTT viability method, A549; assay type: cell-based; details: 1-200 μM, 96 h
Procedure: as §2

[8] = biological target: T1, Fibroblast Growth Factor-1 (FGF-1); assay: FGF-1-induced mitogenesis in quiescent Balb/c 3T3 fibroblast cultures; assay type: cell-based; details: quiescent Balb/c 3T3 fibroblasts
Procedure: The evaluated compounds were used in the form of potassium salt, except in the first case which used calcium salt. The experiments were carried out as described in Fernandez-Tornero C et al. J Biol Chem, 2003.

T1 sequence (P05230 whole entry, species assumed): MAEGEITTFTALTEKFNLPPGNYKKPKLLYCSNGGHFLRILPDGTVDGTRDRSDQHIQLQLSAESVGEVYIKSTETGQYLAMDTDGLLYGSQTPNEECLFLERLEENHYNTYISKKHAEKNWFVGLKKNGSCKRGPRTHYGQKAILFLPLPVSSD

O=C(O)C=Cc1cc(O)ccc1O [2,5-DHC, 3-(2,5-dihydroxyphenyl)-2-propenoic acid]
C6 cell proliferation ([1]; 50 μM): reduced the C6 cell proliferation to less than half
C6 cell proliferation ([1]; 100 μM): proliferation was reduced to one tenth

O=C([O-])c1cc(O)ccc1O.[K+] [2,5-dihydroxybenzoate, potassium 2,5-dihydroxybenzoate]
rat glioma C6 cell proliferation (absorbance at 595 nm) ([1]; 100, 200, 500 or 1000 μM): inhibited rat glioma C6 cell proliferation in a concentration-dependent manner, an effect which was statistically significant at the concentrations of 500 and 1000 μM
bFGF-induced fibrosis (fibroblasts in septa of connective tissue of adipose tissue) [2]: reduces bFGF-induced fibrosis

CC(=O)Oc1ccc(O)cc1S(=O)(=O)[O-].[K+] [2A-5HBS, potassium 2-acetoxy-5-hydroxybenzene sulfonate]
structural interaction with FGF-1 (binding site in co-crystal) [3]: occupy a site that is very close to the one that has been described occupied by 2,5-dihydroxybenzene sulfonic acid

CC(=O)Oc1ccc(O)c(S(=O)(=O)[O-])c1.[K+] [5A-2HBS, potassium 5-acetoxy-2-hydroxybenzene sulfonate]
structural interaction with FGF-1 (binding site in co-crystal) [3]: occupy a site that is very close to the one that has been described occupied by 2,5-dihydroxybenzene sulfonic acid

CC(=O)Oc1ccc(OC(C)=O)c(S(=O)(=O)[O-])c1.[K+] [DABS, potassium 2,5-diacetoxybenzene sulfonate]
tumor cell apoptosis in subcutaneous glioma sections (hematoxylin and eosin) ([4]; 100 mg/kg/day i.p., 10 days): a large number of tumor cells in apoptosis can be observed
probability of being tumor-free (χ2 test) ([4]; DABS group vs DHBS group, 100 mg/kg/day): greater probability of being tumor-free
average size (volume) of the subcutaneous gliomas ([4]; i.p. 100 mg/kg/day, 10 days): this average volume was even less
rats tumor-free when treatment ended ([4]; i.p. 100 mg/kg/day, 10 days, all rats had established tumors prior to treatment): 4 rats
tumor growth (tumor volume) [5]: significantly reduced the human prostate cell tumor growth
weight of the extracted tumor when treatment ended [5]: significant reduction of the weight of the extracted tumor
PC-3 cell proliferation (percentage of control) [6]: caused a significant inhibition
structural interaction with FGF-1 (binding site in co-crystal) [3]: occupy a site that is very close to the one that has been described occupied by 2,5-dihydroxybenzene sulfonic acid
A549 cell proliferation (percentage of control) [7]: caused a significant inhibition

O=S(=O)([O-])c1cc(O)ccc1O.[K+] [DHBS, potassium 2,5-dihydroxybenzene sulfonate, reference compound]
average size (volume) of the subcutaneous gliomas ([4]; i.p. 100 mg/kg/day, 10 days): less than that of the rats treated with carrier
inhibition of mitogenesis induced by FGF-1 [8]: inhibition of the mitogenesis induced by fibroblast growth factor 1
